For this assay, the target named is GTPase HRas (Homo sapiens) (UniProt P01112). As to the kind of experiment: Ras wild-type GTP-binding inhibitors, SAR follow-up, biochemical, pyrazoline analogs, multiplex bead flow cytometry (AID 2047). The note with it: GST-Ras beads, Bodipy-FL-GTP binding, Ki calculated from EC50.

For six compounds, Ki results are on record in PubChem BioAssay AID2047 (NMMLSC, 2009).

The term Ki denotes the dissociation constant of the complex between target and ligand, obtained from inhibition or displacement.

Chain of GTPase HRas (Homo sapiens) (P01112 whole entry, looked up): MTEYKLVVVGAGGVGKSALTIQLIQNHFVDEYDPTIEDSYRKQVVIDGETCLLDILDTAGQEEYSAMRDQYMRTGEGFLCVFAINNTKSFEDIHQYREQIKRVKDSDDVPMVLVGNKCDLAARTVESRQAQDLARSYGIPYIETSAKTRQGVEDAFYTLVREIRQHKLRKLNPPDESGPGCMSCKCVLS

As for `NS(=O)(=O)c1ccc(N2N=C(c3ccc(Cl)cc3)CC2c2ccccc2)cc1` (stereo unspecified), the Ki was 10 nM.

On to `COc1ccc(C2CC(c3ccc(Cl)cc3)=NN2c2ccccc2)cc1OC` (stereo unspecified), for which the Ki was 10 nM.

For `COc1ccc(C2=NN(c3ccccc3)C(c3ccccc3C(F)(F)F)C2)cc1` (stereo unspecified), the Ki is 2770 nM.

Consider `COc1ccc(C2=NN(c3ccccc3F)C(c3ccc(F)cc3)C2)cc1` (stereo unspecified), for which the Ki was 2110 nM.

Consider `CN(C)c1ccc(C2CC(c3ccccc3)=NN2c2ccccc2)cc1` (stereo unspecified), for which the Ki was 10 nM.

Turning to `COc1ccc(C2CC(c3ccccc3)=NN2c2ccc(Cl)c(C(=O)O)c2)cc1` (stereo unspecified), the Ki is 160 nM.
